Data reported in PubChem BioAssay (NCI).
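How tested: cells in 96-well plates exposed to compound for 48 hours at five concentrations. TGI: total growth inhibition.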

Key:
Assay in all cases: inhibition of tumour cell growth, NCI panel, 48 h
786-0 renal = tested on: 786-0 renal
A498 renal = tested on: A498 renal
A549 NSCLC = tested on: A549 NSCLC
ACHN renal = tested on: ACHN renal
BT-549 breast = tested on: BT-549 breast
CAKI-1 renal = tested on: CAKI-1 renal
CCRF-CEM leukemia = tested on: CCRF-CEM leukemia
COLO 205 colon = tested on: COLO 205 colon
EKVX NSCLC = tested on: EKVX NSCLC
HCC-2998 colon = tested on: HCC-2998 colon
HCT-116 colon = tested on: HCT-116 colon
HCT-15 colon = tested on: HCT-15 colon
HOP-62 NSCLC = tested on: HOP-62 NSCLC
HOP-92 NSCLC = tested on: HOP-92 NSCLC
HS 578T breast = tested on: HS 578T breast
HT29 colon = tested on: HT29 colon
IGROV1 ovarian = tested on: IGROV1 ovarian
K-562 leukemia = tested on: K-562 leukemia
KM12 colon = tested on: KM12 colon
LOX IMVI melanoma = tested on: LOX IMVI melanoma
M14 melanoma = tested on: M14 melanoma
MALME-3M melanoma = tested on: MALME-3M melanoma
MCF7 breast = tested on: MCF7 breast
MDA-MB-231 breast = tested on: MDA-MB-231 breast
MDA-MB-435 = tested on: MDA-MB-435
MDA-N = tested on: MDA-N
MOLT-4 leukemia = tested on: MOLT-4 leukemia
NCI-H226 lung = tested on: NCI-H226 lung
NCI-H23 lung = tested on: NCI-H23 lung
NCI-H460 lung = tested on: NCI-H460 lung
NCI-H522 lung = tested on: NCI-H522 lung
NCI/ADR-RES ovarian = tested on: NCI/ADR-RES ovarian
OVCAR-3 ovarian = tested on: OVCAR-3 ovarian
OVCAR-4 ovarian = tested on: OVCAR-4 ovarian
OVCAR-5 ovarian = tested on: OVCAR-5 ovarian
OVCAR-8 ovarian = tested on: OVCAR-8 ovarian
PC-3 prostate = tested on: PC-3 prostate
RPMI-8226 leukemia = tested on: RPMI-8226 leukemia
RXF 393 renal = tested on: RXF 393 renal
SF-268 CNS = tested on: SF-268 CNS
SF-295 CNS = tested on: SF-295 CNS
SF-539 CNS = tested on: SF-539 CNS
SK-MEL-2 melanoma = tested on: SK-MEL-2 melanoma
SK-MEL-5 melanoma = tested on: SK-MEL-5 melanoma
SK-OV-3 ovarian = tested on: SK-OV-3 ovarian
SN12C renal = tested on: SN12C renal
SNB-19 CNS = tested on: SNB-19 CNS
SR leukemia = tested on: SR leukemia
SW-620 colon = tested on: SW-620 colon
T-47D breast = tested on: T-47D breast
TK-10 renal = tested on: TK-10 renal
U251 CNS = tested on: U251 CNS
UACC-257 melanoma = tested on: UACC-257 melanoma
UACC-62 melanoma = tested on: UACC-62 melanoma
UO-31 renal = tested on: UO-31 renal

Measured: TGI

CCc1n[nH]c(=O)n1NC(=O)CCCC(=O)O
> 100 µM: all assays above
